Source: ChEMBL document CHEMBL5528050, “Discovery of a Novel Series of Homo sapiens Caseinolytic Protease P Agonists for Colorectal Adenocarcinoma Treatment via ATF3-Dependent Integrated Stress Response” (J Med Chem, 2024)
pEC50, pIC50, pKd: −log10 of the molar value. Blank lines part the entries; values can stand above or below the molecule they belong to. The source made the active and inactive calls. No cut-off for these calls is given here.

What was measured:
[1] = tested on: HCT-116; experiment: cells; details: Homo sapiens, HCT-116, 72 h
Description: Antiproliferative activity against human HCT-116 cells assessed as inhibition of cell growth measured after 72 hrs by CCK-8 method

[2] = Cmax in Sprague-Dawley rat at 5 mg/kg, iv by LC-MS/MS analysis; type: ADME, organism-based; details: in vivo
[3] = AUC (0 to 12hrs) in Sprague-Dawley rat at 5 mg/kg, iv by LC-MS/MS analysis; type: ADME, organism-based; details: in vivo
[4] = Half life in Sprague-Dawley rat at 5 mg/kg, iv by LC-MS/MS analysis; details: in vivo
[5] = Clearance in Sprague-Dawley rat at 5 mg/kg, iv by LC-MS/MS analysis; type: ADME, organism-based; details: in vivo
[6] = MRT (0 to 12 hrs) in Sprague-Dawley rat at 5 mg/kg, iv by LC-MS/MS analysis; type: ADME, organism-based; details: in vivo
[7] = Cmax in Sprague-Dawley rat at 15 mg/kg, po by LC-MS/MS analysis; type: ADME, organism-based; details: in vivo
[8] = Tmax in Sprague-Dawley rat at 15 mg/kg, po by LC-MS/MS analysis; type: ADME, organism-based; details: in vivo
[9] = AUC (0 to 12hrs) in Sprague-Dawley rat at 15 mg/kg, po by LC-MS/MS analysis; type: ADME, organism-based; details: in vivo
[10] = Half life in Sprague-Dawley rat at 15 mg/kg, po by LC-MS/MS analysis; details: in vivo
[11] = MRT (0 to 12hrs) in Sprague-Dawley rat at 15 mg/kg, po by LC-MS/MS analysis; type: ADME, organism-based; details: in vivo
[12] = Oral bioavailability in Sprague-Dawley rat at 15 mg/kg by LC-MS/MS analysis; type: ADME, organism-based; details: in vivo
[13] = biological target: T1, ATP-dependent Clp protease proteolytic subunit, mitochondrial (Homo sapiens, UniProt Q16740); experiment: Agonist activity at human ClpP expressed in Escherichia coli using AC-WLA-AMC as substrate measured every 5 mins for 1 hr by fluorescence based analysis
[14] = biological target: T1, ATP-dependent Clp protease proteolytic subunit, mitochondrial; experiment: Binding affinity to human ClpP expressed in Escherichia coli assessed as dissociation constant by ITC method
[15] = Antiproliferative activity against HEK293 cells assessed as inhibition of cell growth measured after 72 hrs by CCK-8 method; type: toxicity, cell-based; details: human
[16] = Antiproliferative activity against rat H9c2 cells assessed as inhibition of cell growth measured after 72 hrs by CCK-8 method; type: toxicity, cell-based
[17] = Antiproliferative activity against human L02 cells assessed as inhibition of cell growth measured after 72 hrs by CCK-8 method; type: toxicity, cell-based
[18] = Antiproliferative activity against human HCoEpiC cells assessed as inhibition of cell growth measured after 72 hrs by CCK-8 method; type: toxicity, cell-based
[19] = tested on: HCT-116; experiment: Induction of ROS generation in human HCT-116 cells assessed as increase in intracellular ROS level measured after 48 hrs DCFH-DA staining based analysis; type: functional, cell-based
[20] = tested on: HCT-116; experiment: Inhibition of mitochondrial function in human HCT-116 cells assessed as reduction in ATP production; type: functional, cell-based
[21] = tested on: Cell membrane; experiment: Induction of mitochondrial membrane potential loss in human HCT-116 cells assessed as increase in green fluorescence at high dose measured after 48 hrs by JC-1 staining based microscopy analysis; type: cell membranes
[22] = tested on: HCT-116; experiment: Antiproliferative activity against human HCT-116 cells assessed reduction in clone formation measured after 48 hrs by crystal violet staining based analysis; type: functional, cell-based
[23] = tested on: HCT-116; experiment: Inhibition of cell migration in human HCT-116 cells at 5 to 20 uM measured after 24 to 48 hrs by microscopy based analysis; type: functional; details: dose 5-20 µM, time 24-48 hrs
[24] = tested on: HCT-116; experiment: Induction of apoptosis in human HCT-116 cells measured after 48 hrs by annexin V-FITC/7-AAD based flow cytometry analysis; type: functional, cell-based
[25] = tested on: HCT-116; experiment: Induction of apoptosis in human HCT-116 cells assessed as apoptotic rate at low dose measured after 48 hrs by annexin V-FITC/7-AAD based flow cytometry analysis relative to control; type: functional
[26] = tested on: HCT-116; experiment: Induction of apoptosis in human HCT-116 cells assessed as apoptotic rate at medium dose measured after 48 hrs by annexin V-FITC/7-AAD based flow cytometry analysis relative to control; type: functional
[27] = tested on: HCT-116; experiment: Induction of apoptosis in human HCT-116 cells assessed as cell death at 20 uM measured after 48 hrs by annexin V-FITC/7-AAD based flow cytometry analysis relative to control; type: functional
[28] = tested on: HCT-116; experiment: Induction of cell cycle arrest in human HCT-116 cells assessed as effect on number of cells at G1 phase at 5 to 20 uM measured after 48 hrs by PI staining based flow cytometry analysis; type: functional; details: dose 5-20 µM
[29] = tested on: HCT-116; experiment: Induction of cell cycle arrest in human HCT-116 cells assessed as increase in number of cells at G2 phase at 5 uM measured after 48 hrs by PI staining based flow cytometry analysis; type: functional
[30] = tested on: HCT-116; experiment: Induction of cell cycle arrest in human HCT-116 cells assessed as increase in number of cells at G2 phase at high dose measured after 48 hrs by PI staining based flow cytometry analysis; type: functional
[31] = tested on: HCT-116; experiment: Antiproliferative activity against ClpP knockdown human HCT-116 cells assessed as fold increase in IC50; type: functional
[32] = biological target: T1, ATP-dependent Clp protease proteolytic subunit, mitochondrial; details: filed as agonist, dose 100.0 µM, time 30.0 min
[33] = tested on: SW-620; experiment: cells; details: Homo sapiens, SW-620, 72 h
Description: Antiproliferative activity against human SW-620 cells assessed as inhibition of cell growth measured after 72 hrs by CCK-8 method

[34] = tested on: HCT-15; experiment: cells; details: Homo sapiens, HCT-15, 72 h
Description: Antiproliferative activity against human HCT-15 cells assessed as inhibition of cell growth measured after 72 hrs by CCK-8 method

[35] = tested on: SW480; experiment: cells; details: Homo sapiens, SW480, 72 h
Description: Antiproliferative activity against human SW480 cells assessed as inhibition of cell growth measured after 72 hrs by CCK-8 method

[36] = tested on: DLD-1; experiment: cells; details: Homo sapiens, DLD-1, 72 h
Description: Antiproliferative activity against human DLD-1 cells assessed as inhibition of cell growth measured after 72 hrs by CCK-8 method

[37] = tested on: HCT-116; experiment: Upregulation of slug expression in human HCT-116 cells measured after 48 hrs by Western blot analysis; type: functional, cell-based

T1 sequence (Q16740 whole entry): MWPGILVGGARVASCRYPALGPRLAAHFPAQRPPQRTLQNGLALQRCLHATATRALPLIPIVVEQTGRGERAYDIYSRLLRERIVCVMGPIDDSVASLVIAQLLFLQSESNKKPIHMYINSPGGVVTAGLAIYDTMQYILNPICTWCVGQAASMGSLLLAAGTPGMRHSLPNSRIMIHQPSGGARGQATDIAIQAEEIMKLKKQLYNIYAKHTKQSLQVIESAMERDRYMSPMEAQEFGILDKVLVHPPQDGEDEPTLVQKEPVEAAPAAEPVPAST

- pIC50 [1]: 4.23
SMILES: CC(NC(=O)c1cc(C(F)(F)F)cc(C(F)(F)F)c1)C(=O)Nc1ccc(Cl)cc1 (stereo unspecified)

- pIC50 [1]: 4.80
SMILES: O=C(Nc1ccc(Cl)c(Cl)c1)C1CCCN(C(=O)c2cc(C(F)(F)F)cc(C(F)(F)F)c2)C1 (stereo unspecified)

- pIC50 [1]: 4.79
SMILES: O=C(Nc1cc(Cl)c(Cl)c(Cl)c1)C1CCCN(C(=O)c2cc(C(F)(F)F)cc(C(F)(F)F)c2)C1 (stereo unspecified)

- pIC50 [1]: 4.19
SMILES: O=C(CCNC(=O)c1cc(C(F)(F)F)cc(C(F)(F)F)c1)Nc1ccc(Cl)cc1

- pIC50 [1]: 4.52
SMILES: O=C(Nc1cccc(Cl)c1)C1CCCN(C(=O)c2cc(C(F)(F)F)cc(C(F)(F)F)c2)C1 (stereo unspecified)

- pIC50 [1]: 4.40
SMILES: O=C(Nc1ccc(Oc2ccccc2)cc1)C1CCCN(C(=O)c2cc(C(F)(F)F)cc(C(F)(F)F)c2)C1 (stereo unspecified)

- pIC50 [1]: 4.39
SMILES: N#Cc1cccc(CN2CCCC(C(=O)NCc3ccc(Cl)cc3Cl)C2)c1 (stereo unspecified)

- pIC50 [1]: 4.32
SMILES: N#Cc1cccc(CN2CCCC(C(=O)NCc3ccc4ccccc4c3)C2)c1 (stereo unspecified)

- pIC50 [1]: 4.39
SMILES: O=C(Nc1ccc(Cl)cc1)C1=CCCN(C(=O)c2cc(C(F)(F)F)cc(C(F)(F)F)c2)C1

- pIC50 [1]: 4.26
SMILES: O=C(NCc1ccccc1)C1=CCCN(Cc2ccccc2)C1

- pIC50 [1]: 4.60
SMILES: O=C(Nc1ccc(Cl)cc1)c1cccc(NC(=O)c2cc(C(F)(F)F)cc(C(F)(F)F)c2)c1

- pIC50 [1]: 4.69
SMILES: N#Cc1cccc(CN2CCCC(C(=O)NCc3ccc(C(F)(F)F)cc3)C2)c1 (stereo unspecified)

- pIC50 [1]: 5.60
SMILES: N#Cc1cccc(CN2CCC=C(C(=O)Nc3ccc(Cl)cc3)C2)c1

- pIC50 [1]: 4.11
SMILES: O=C(NCCNC(=O)c1cc(C(F)(F)F)cc(C(F)(F)F)c1)c1ccc(Cl)cc1

- pIC50 [1]: 4.70
SMILES: O=C(NCc1ccc(C(F)(F)F)cc1)C1=CCCN(Cc2cccc(F)c2)C1

- pIC50 [1]: 4.40
SMILES: CC(C)(C)c1ccc(CNC(=O)C2CCCN(Cc3cccc(C#N)c3)C2)cc1 (stereo unspecified)

- pIC50 [1]: 4.09
SMILES: CC1(C)CCC(NC(=O)C2CCCN(C(=O)c3cc(C(F)(F)F)cc(C(F)(F)F)c3)C2)CC1 (stereo unspecified)

- pIC50 [1]: 4.12
SMILES: O=C(Nc1ccc(Cl)cc1)C1CCCN(C(=O)c2cccc(-c3ccco3)c2)C1 (stereo unspecified)

- pIC50 [1]: 4.69
SMILES: O=C(NCc1ccc(C(F)(F)F)cc1)C1=CCCN(C(=O)c2cc(C(F)(F)F)cc(C(F)(F)F)c2)C1

- pIC50 [1]: 4.22
SMILES: O=C(Nc1ccncc1)C1CCCN(C(=O)c2cc(C(F)(F)F)cc(C(F)(F)F)c2)C1 (stereo unspecified)

- pIC50 [1]: 4.52
SMILES: O=C(Nc1ccc(C(F)(F)F)cc1)C1CCCN(C(=O)c2cc(C(F)(F)F)cc(C(F)(F)F)c2)C1 (stereo unspecified)

- Cmax [2]: 2770 ng/mL
- AUC(0-t) [3]: 1960 ng·h/mL
- half-life [4]: 54 min
- clearance [5]: 42.7 mL/min/kg
- MRT last [6]: 54 min
- Cmax [7]: 566 ng/mL
- Tmax [8]: 24 min
- AUC(0-t) [9]: 894 ng·h/mL
- half-life [10]: 66 min
- MRT last [11]: 90 min
- bioavailability [12]: 15.3%
SMILES: Cc1ccccc1CN1C(=O)C2=C(CCN(Cc3ccccc3)C2)N2CCN=C12 [DORDAVIPRONE]

- pIC50 [1]: 4.17
SMILES: O=C(Nc1ccc(Cl)cc1)C1CCCN(C(=O)Cc2cc(Cl)ccc2F)C1 (stereo unspecified)

- pIC50 [1]: 4.69
SMILES: N#Cc1cccc(CN2CCCC(C(=O)Nc3ccc(Cl)cc3)C2)c1 (stereo unspecified)

SMILES: CC(ONC(=O)c1cc(C(F)(F)F)cc(C(F)(F)F)c1)C(=O)Nc1ccc(Cl)cc1 (stereo unspecified)
- pEC50 [13]: 7.98
- pKd [14]: 5.08
- IC50 at 72 h [15]: 55.4 µM
- IC50 at 72 h [16]: 35.5 µM
- IC50 at 72 h [17]: 30.4 µM
- IC50 at 72 h [18]: 61.7 µM
- Activity [19]: Active
- inhibition [20]: Active
- Activity [21]: Active
- Activity [22]: Dose-Dependent Effect
- inhibition [23]: Active
- Activity [24]: Dose-Dependent Effect
- Activity [25]: 15%
- Activity [26]: 22%
- Activity [27]: 40%
- Activity [28]: inactive
- Activity [29]: 20%
- Activity [30]: ~40%
- fold change (FC) [31]: 1.5
- ΔTm [32]: 4 °C
- pIC50 [1]: 4.69
- pIC50 [33]: 4.81
- pIC50 [34]: 4.43
- pIC50 [35]: 4.38
- pIC50 [36]: 4.53

- pIC50 [1]: 4.30
SMILES: N#Cc1cccc(CN2CCCC(C(=O)NCc3ccc4c(c3)OCO4)C2)c1 (stereo unspecified)

- pIC50 [1]: 4.30
SMILES: O=C(NCc1ccc(C(F)(F)F)cc1)C1=CCCN(Cc2ccccc2)C1
- Activity [37]: Active

- pIC50 [1]: 4.59
SMILES: O=C(NCc1ccc(C(F)(F)F)cc1)C1=CCCN(Cc2ccc(F)c(F)c2)C1

- pIC50 [1]: 4.66
SMILES: N#Cc1cccc(CN2CCCC(C(=O)NCc3ccc(Cl)cc3)C2)c1 (stereo unspecified)

- pIC50 [1]: 4.78
SMILES: O=C(Nc1ccc(Cl)cc1)C1CCCN(C(=O)c2cc(C(F)(F)F)cc(C(F)(F)F)c2)C1 (stereo unspecified)

- pIC50 [1]: 4.60
SMILES: O=C(NCc1ccc(C(F)(F)F)cc1)C1CCCN(C(=O)c2cc(C(F)(F)F)cc(C(F)(F)F)c2)C1 (stereo unspecified)

- pIC50 [1]: 4.60
SMILES: N#Cc1cccc(CN2CCCC(C(=O)NCc3ccc(Cl)c(Cl)c3)C2)c1 (stereo unspecified)

- pIC50 [1]: 4.08
SMILES: O=C(Nc1ccc(Cl)cc1)C1=CCCN(Cc2ccccc2)C1

- pIC50 [1]: 4.60
SMILES: O=C(NCc1ccc(C(F)(F)F)cc1)C1=CCCN(Cc2cc(C(F)(F)F)cc(C(F)(F)F)c2)C1

- pIC50 [1]: 4.25
SMILES: O=C(NCCc1ccc(Cl)cc1)C1CCCN(C(=O)c2cc(C(F)(F)F)cc(C(F)(F)F)c2)C1 (stereo unspecified)

- pIC50 [1]: 4.02
SMILES: O=C(NCc1ccc2c(c1)OCO2)C1CCCN(C(=O)c2cc(C(F)(F)F)cc(C(F)(F)F)c2)C1 (stereo unspecified)
